Assays:
[1] = chemical stability of drug substance in tablets as a function of residual moisture (LOD); assay type: physicochemical; conditions: LOD kept at about 2.1%-4.5% (200 mg tablets) or about 1.7%-3.5% (400 mg, 65% drug-loaded tablets)
Method: That is, certain degradation products of 5-methyl-2-(2′-chloro-6′-fluoroanilino)phenylacetic acid are formed at a greater rate in dryer tablets, which is contrary to the typical behavior of drug substances. In general, moisture, in the form of water, is detrimental to drug stability, and packaging for pharmaceutical formulations frequently contains some form of desiccant material to minimize moisture levels.
Tablets with about 200 mg of active agent preferably have an LOD of 3.5% with a desirable range between about 2.1% and about 4.5%. 65% drug-loaded tablets with about 400 mg of active agent preferably have an LOD of about 2.5%, with a desirable range between about 1.7% and about 3.5%.
The compositions and methods of the invention provide solid pharmaceutical compositions for oral administration comprising 5-methyl-2-(2′-chloro-6′-fluoroanilino)phenylacetic acid with minimal levels of total degradation products Oral dosage levels for 5-methyl-2-(2′-chloro-6′-fluoroanilino)phenylacetic acid are of the order of between about 200 and about 1200 mg per patient per day. In a preferred embodiment, the effective amount is between about 200 and about 800 mg. In a more preferred embodiment, the effective amount is between about 200 and about 600 mg. In an even more preferred embodiment, the effective amount is between about 200 and about 400 mg. […]

[2] = blood plasma half life after oral administration; assay type: in vivo; conditions: oral administration of immediate release composition
Excerpt: The pharmaceutical compositions useful in the practice of the invention are for oral administration and are “immediate release” dosage forms. That is, the pharmaceutical compositions useful in the practice of the invention have neither the pharmacokinetic nor physical characteristics of extended release pharmaceutical dosage forms. Thus, a pharmaceutical composition useful in the practice of the invention, if in solid form, will disintegrate or dissolve rapidly, preferably within one hour of administration, and administration of a pharmaceutical composition useful in the practice of the invention will result in a rapid rise in the blood plasma concentration of 5-methyl-2-(2′-chloro-6′-fluoroanilino)phenylacetic acid. Preferably, the blood plasma concentration of 5-methyl-2-(2′-chloro-6′-fluoroanilino)phenylacetic acid will reach a maximum within two to six hours after oral administration and will then fall rapidly due to the relatively short (3 to 6 hour) half life of 5-methyl-2-(2′-chloro-6′-fluoroanilino)phenylacetic acid.

chemical stability of the active agent in tablets [1]: more chemically stable | half-life [2]: 3 to 6 h
SMILES: Cc1ccc(Nc2c(F)cccc2Cl)c(CC(=O)O)c1 [5-methyl-2-(2′-chloro-6′-fluoroanilino)phenylacetic acid]
